The METLIN SMRT retention time set (Domingo-Almenara et al. 2019)

Assay: gradient 5% acetonitrile 3 min, to 50% in 2 min, to 85% in 15 min, held 3 min, 100 µL/min
Conditions: column: Zorbax Extend-C18 2.1 x 50 mm; eluents: water / acetonitrile, 0.1% formic acid
Outline: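 Mixtures of ~100 pure standards were chromatographed on a Zorbax Extend-C18 column (2.1 × 50 mm, 1.8 μm) at 100 μL/min using water and acetonitrile, each with 0.1% formic acid. Detection used a quadrupole time-of-flight mass spectrometer in positive and negative ionization mode, and data collection spanned 3 months. Retention time was obtained from adduct peaks picked computationally and each checked manually.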

Structure (SMILES)	RP-LC retention time [s]
CCn1cc(S(=O)(=O)Nc2ccc(F)c(F)c2)c2cccnc21	848
Cc1cc(=O)n(CC(C)O)c(-c2ccccc2)n1 (centres undefined)	753
Fc1ccc(OCc2nc(C3CCCN3)no2)cc1 (centres undefined)	564
CCCCN1CCCC1CNC(=O)c1cc(C#N)c2ccccc2c1OC (centres undefined)	781
CCOC(=O)c1csc(NC(=O)CCS(=O)(=O)c2ccc(OC)cc2)n1	700
COc1ccc(-c2noc(Cn3nc(-c4ccc(Cl)cc4)ccc3=O)n2)cc1	1080
CCOc1cc(-c2noc(-c3ncn4c3COC(c3ccc(OC)cc3)C4)n2)ccc1OC (centres undefined)	992
CN(C)c1ccc(C(CNC(=O)C(=O)Nc2ccc(F)c(Cl)c2)N2CCCC2)cc1 (centres undefined)	613
COc1ccc2c(c1)C1(CCN(S(=O)(=O)c3cccc(F)c3)C1)C(=O)N2C (centres undefined)	874
COc1cc(NC(=O)CCc2c(C)nn(-c3cc(N(C)C)ncn3)c2C)cc(OC)c1	792
CCC(C)n1c(=O)c2ccccc2n(Cc2nc(-c3cccc(Br)c3)no2)c1=O (centres undefined)	1290
COC(=O)C1=C(C)NC(=O)NC1c1ccc(Cl)c(Cl)c1 (centres undefined)	726
CCc1noc(-c2ccnc(-n3cnc(C(=O)NC(C)C)c3)c2)n1	784
CC(=O)N1CCc2c([nH]c3ccccc23)C12C(=O)N(CC(C)C)c1ccc(Br)cc12 (centres undefined)	974
O=S(=O)(Cc1ccccc1)N1CCC(Cc2nncn2-c2ccccc2)CC1	1080
CCC(=O)N1CCc2c(C(=O)NCc3ccc4c(c3)OCO4)cccc21	718
Cc1ccc(-c2nc(-c3ccc4ncn(C(C)C)c4c3)no2)cc1	857
COc1ccc(CN2C(=O)c3ccccc3C2C(=O)NCC2CCCO2)c(OC)c1 (centres undefined)	695
COc1ccc(CNC(=O)CSc2nnc(-c3ccccc3)n2-n2cccc2)cc1	775
CCOC(=O)C1CCCN(CC(O)COc2ccccc2Br)C1 (centres undefined)	590
Cc1cccc(NC(=O)NCC(O)Cc2ccccc2)c1 (centres undefined)	734

Structure (SMILES)	RP-LC retention time [s]
CC(C)(C)C1CCC2(CC1)CCN(CCCN1CCOCC1)CC2	619
CCOC(=O)c1ccc(NC(=O)c2ccc(-n3nncc3C)cc2)cc1	757
COc1ccccc1-c1noc(-c2nc(-c3ccc4c(c3)OCO4)no2)n1	1120
CC(C)CNC(=O)N1CCCC(CCc2nnc(-c3cnccn3)o2)C1 (centres undefined)	697
CC1CCCN(C(=O)C2CCN(CCc3c[nH]c4ncccc34)CC2)C1 (centres undefined)	586
Cc1ccc(C(=O)NC(C)C(=O)Nc2nc3ccccc3[nH]2)cc1 (centres undefined)	648
Cn1cc(S(=O)(=O)N2CCC(C(=O)NC3CCCCC3)CC2)cc1C(=O)N1CCCC1	736
CSc1ccccc1C(=O)Nc1ccc(CC(=O)NCC(F)(F)F)cc1	738
CN1CCN(CCCNC(=O)CN2C(=O)C3CCCCN3c3ccc(C(=O)N4CCCC4)cc32)CC1 (centres undefined)	579
O=C(NCCSc1ncc(-c2ccc(F)cc2)[nH]1)c1cccs1	584
CC(C)n1nc(-c2ccc3oc(N)nc3c2)c2c(N)ncnc21	628
CCOC(=O)Cc1csc(NC(=O)C2CCCN(c3ncnc4c3nc3n4CCCCC3)C2)n1 (centres undefined)	810
COc1ccc(CNC(=O)NCC2(c3ccc(F)cc3)CC2)cc1	817
O=C(N1CCC(NS(=O)(=O)Cc2ccccc2)CC1)N1C[C@H]2C[C@H](C1)[C@H]1CCCC(=O)N1C2	649
COc1cccc(NS(=O)(=O)c2cc3n(c2)CCCNC3=O)c1	632
COCCN1C(=O)[C@H]2CN(Cc3ccc(OC)c(OC)c3Cl)C[C@H]2C1=O	620
COCC(=O)Nc1nc(-c2ccc3c(c2)N(C)C(=O)C(C)O3)cs1 (centres undefined)	770
COc1ccc(-c2csc3ncn(-n4c(C)ccc4C)c(=O)c23)cc1OC	905
COC[C@@H]1CN(S(=O)(=O)c2ccccc2F)C[C@H]1c1ccncc1	745
Cc1cc(C)cc(N2CCC(NC(=O)c3ccc(Cl)s3)C2=O)c1 (centres undefined)	956
CCOc1ccc(-c2noc(Cn3nc(-c4ccc5c(c4)OCO5)ccc3=O)n2)cc1	1130

Structure (SMILES)	RP-LC retention time [s]
Cc1nc2ccc(NC(=O)c3cccnc3)cc2c(=O)n1-c1ccc(F)cc1	623
CCn1c(CC2CCN(C(=O)NCC(=O)OC)C2)nc2cccnc21 (centres undefined)	534
CCc1nnc(NC(=O)c2ccoc2COc2ccc(C)cc2)s1	803
COCCCNC(=O)CCc1nnc2ccc(-c3ccc(C)c(C)c3)nn12	718
COCCCNC(=O)N1CCCC1c1nc(-c2cccc(C)c2)no1 (centres undefined)	810
CCOC(=O)c1c(C)n(C)c2ccccc12	887
CCCNC(=O)Cn1c(C2CCCO2)nc2ccccc21 (centres undefined)	593
CCCCNC(=O)c1cn(-c2ccc(NC(=O)CC)cn2)cn1	678
C/C(=C\c1csc(C)n1)[C@@H]1C[C@@H]2O[C@]2(C)CCC[C@H](C)[C@H](O)[C@@H](C)C(=O)C(C)(C)[C@@H](O)CC(=O)N1	707
Cc1cccc(Oc2nccnc2N2CCC(C(=O)NCCC3=CCCCC3)CC2)c1	1130
Cc1cnc(C(=O)NC2C[C@H]3CC[C@@H](C2)N3C(=O)C2CC2)cn1 (some centres undefined)	606
Cn1nccc1-c1cccc(-c2noc(-c3ccc(Br)cc3)n2)c1	1280
CCOc1ccc(NC(=O)c2cc(=O)c3cc(Cl)ccc3o2)c2cccnc12	665
CCOC(=O)C1CCCN(CC(=O)Nc2nc(-c3ccccc3)cs2)C1 (centres undefined)	690
Cc1ccc(CCNC(=O)c2ncn3c2C(=O)N(C2CC2)C(C)(C(=O)NC2CCCC2)C3)cc1 (centres undefined)	795
COc1cc(NC(=O)N2CCC(OC3CCN(S(C)(=O)=O)CC3)CC2)cc(OC)c1	704
O=C(Cn1c(=O)cc(-c2nc(C3CC3)no2)c2ccccc21)NC1CCCC1	869
O[C@@H]1C[C@@H](c2nnc3n2CCN(Cc2ccccc2)C3)N(Cc2cccnc2)C1	563
O=C(Cc1cccs1)Nc1ccc(Nc2ccc(-n3cccn3)nn2)cc1	708

Second part, the compound after the results:

RP-LC retention time [s]	Structure (SMILES)
597	Cc1nn(CC(=O)NCCCN2CCCC2)c(=O)c2nn(-c3ccccc3)c(C)c12
874	O=C(NCc1ccc(F)cc1)N1CCc2nc(-c3ccccc3)ncc2C1
819	Cc1cccc(S(=O)(=O)N2CCC(c3nc(C(=O)N4CCOCC4)c(C)o3)CC2)c1
761	Cc1cccc(Oc2nccnc2Sc2ccccc2C(=O)N2CCN(c3ccccn3)CC2)c1
864	CCOc1ccccc1N1CCN(c2cc(C(=O)O)c3cc(NC(=O)C4CCC4)ccc3n2)CC1
1100	CCc1nc(-n2cccc2)sc1C(=O)Nc1ccccc1F
873	Cc1nc(-c2ccc(N3CCN(C(=O)c4ccccc4F)CC3)nc2)sc1C
924	CCn1cc(-c2nc(CC(=O)NCc3ccccc3Cl)cs2)c2cccnc21
764	O=C(Nc1ccc(Cl)cc1)N1CCC(N2CCN(Cc3ccccc3)C(=O)C2=O)CC1
956	CCc1noc(NC(C)=O)c1-c1ccc(C)c(S(=O)(=O)N2CCc3ccccc3C2)c1
1060	Cc1ccc(-c2noc(C3CC(=O)N(c4ccc(Cl)cc4)C3)n2)cc1 (centres undefined)
846	O=C(NCc1ccco1)c1cc2c(s1)CCN(C(=O)c1ccc(Cl)cc1)C2
711	COc1ccccc1N1CCN(C(=O)C2CCCN(c3nccc4sc(C)cc34)C2)CC1 (centres undefined)
931	CC(C)c1cccc(NC(=O)C2CCN(C(=O)c3ncn4c3COC(c3ccc(F)cc3)C4)CC2)c1 (centres undefined)
775	Cc1cccc(NC(=O)N2CCC3(CC2)NC(=O)c2ccccc2O3)c1C
806	COc1ccccc1NC(=O)N1CCC2(CC1)NC(=O)c1ccc(Cl)cc1N2C
742	CC1CCCN(c2ccn3c(=O)n(CC(=O)N(C)c4ccccc4)nc3n2)C1 (centres undefined)
569	COCCn1cc(CC(=O)N2CCN(c3ccccn3)CC2)c2cccnc21
837	CN(CC(=O)N1CCN(c2ccc(Cl)cc2)CC1)S(=O)(=O)c1c[nH]c(C(=O)N2CCCC2)c1
1020	CCOc1ccccc1NC(=O)c1sc(N2CCCC2=O)nc1CC
629	O=C(NCCCN1CCOCC1)c1nc2ccccn2c1-c1ccc(Cl)cc1
619	CC1CCN(C(=O)c2ccc3ncnc(N4CCCC4)c3c2)CC1
703	COc1ccc(-c2nnc(COc3ccc(NC(=O)C4CCN(C(C)=O)CC4)cc3)o2)cc1
655	Cc1ccc(NC(=O)Cn2cnc3nc(N4CCC(C(=O)NC5CC5)CC4)sc3c2=O)c(F)c1
959	O=C(Cn1cc(-c2nc(-c3ccc(Cl)cc3)no2)ccc1=O)N1CCCC1
726	CSc1ccc(NC(=O)N2CCC(c3nc(C(=O)N4CCOCC4)c(C)o3)CC2)cc1
661	O=C(CN1C(=O)CSc2ccc(C(=O)N3CCCC3)cc21)N1CCN(c2ncccn2)CC1
763	COc1ccc(-n2nc(N3CCCC(C(=O)NCc4cccc(OC)c4)C3)ccc2=O)cc1 (centres undefined)
